Where two headings read alike, the source gives them in different places.
Legend:
[1] = system: Polyarthritis (adjuvant-induced, heat-killed Mycobacterium butyricum) in male CD rats; assay: Developing Adjuvant-Induced Polyarthritis in Rats; type: in vivo, rat; settings: for % Inhibition: oral, once daily 14 days, non-injected hind paw volume
Method: This test is used to determine the ability of compounds to affect the immunological processes involved in the induction and development of arthritis.
(§1) Polyarthritis is induced in male CD rats (150-170 g) by injection of heat-killed Mycobacterium butyricum. Each animal is given 0.1 ml of a 0.5% (5 mg/ml) adjuvant suspension in light mineral oil injected subcutaneously into the plantar surface of the right hind foot. At least 6 rats are used in each test group. Animals are dosed orally with test compound immediately after adjuvant injection, and once daily for a total of 14 days. Foot volumes are measured 24 hours after the final dose by mercury displacement to the lateral malleolus. Mean displacement volumes and their standard errors are calculated for the non-injected hind paws. Untreated normal and arthritic control groups are used as comparison for test compound effect. Results are expressed as percent of control effect.
The experiments reported here are performed using the same procedures as described in Example 3, except that 4-[2-(3',5'-di-t-butyl-4'-hydroxyphenol)ethenyl]pyridine (prior art) is under assay rather than the compound of the invention.

[2] = system: established adjuvant-induced polyarthritis in rats; assay: Established Adjuvant-Induced Polyarthritis in Rats; type: in vivo, rat
Method: as §1
This assay is used to determine the ability of compounds to affect an established chronic inflammatory condition.
Rats in which polyarthritis has become established are selected 14 days after receiving the adjuvant suspension. They are treated daily with oral doses of test compound for 14 days (days 14-27). […] 24 hours after the final dose.

[3] = system: carrageenan induced paw edema in male CD rats; assay: Carrageenan Induced Paw Edema in Rats; type: in vivo, rat
Method: This test is used to determine the ability of a compound to affect non-immune acute inflammation. Edema is produced in the right hind paw of male CD rats (150±10 g) by the subplantar injection of carrageenan (0.1 ml of a 1 percent suspension in saline). Ten rats are used in each test group. Test compound or its vehicle is administered orally 1 hour prior to carrageenan injection. Paw volume is determined by calculating the amount of mercury displaced after immersing the paw to the level of the lateral malleolus. Foot volumes are measured just prior to test compound administration and again 3 hours after carrageenan injection and the difference designated as edema volume.

[4] = biological target: T1, 5-Lipoxygenase (Oryctolagus cuniculus, UniProt G1SNX0); assay: Hydroxyacid Profile Assay of 5-Lipoxygenase Derived Arachidonic Acid Metabolites (5-HETE biosynthesis by glycogen-elicited PMNs); type: cell-based, rabbit
T1 construct: glycogen elicited rabbit PMNs; endogenous in cells; host or cells: glycogen-elicited rabbit polymorphonuclear leucocytes (PMNs)
T1 sequence (G1SNX0 1-674): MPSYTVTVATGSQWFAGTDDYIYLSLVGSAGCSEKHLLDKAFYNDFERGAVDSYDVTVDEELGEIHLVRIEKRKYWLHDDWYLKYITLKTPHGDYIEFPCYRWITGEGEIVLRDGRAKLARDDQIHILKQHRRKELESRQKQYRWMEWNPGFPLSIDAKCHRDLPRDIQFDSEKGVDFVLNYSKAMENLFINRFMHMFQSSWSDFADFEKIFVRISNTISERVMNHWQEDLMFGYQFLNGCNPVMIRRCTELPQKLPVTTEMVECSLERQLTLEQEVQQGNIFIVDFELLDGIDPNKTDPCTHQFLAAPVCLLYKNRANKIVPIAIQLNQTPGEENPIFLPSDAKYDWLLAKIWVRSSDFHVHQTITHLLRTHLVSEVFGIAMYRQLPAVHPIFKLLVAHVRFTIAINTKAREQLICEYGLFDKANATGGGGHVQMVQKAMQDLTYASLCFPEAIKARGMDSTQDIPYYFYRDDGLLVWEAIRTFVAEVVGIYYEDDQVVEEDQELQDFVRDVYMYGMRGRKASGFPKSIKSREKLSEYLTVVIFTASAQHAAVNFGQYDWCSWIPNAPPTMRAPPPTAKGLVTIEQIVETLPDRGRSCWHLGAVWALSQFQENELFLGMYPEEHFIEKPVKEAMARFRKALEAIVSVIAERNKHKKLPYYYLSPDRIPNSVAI
Method: Buffer A (8.70 g NaCl; 0.27 g KCl; 0.42 g Na2 HPO4; 0.76 g KH2 PO4; and 1.00 g dextrose per liter H2 O; pH 7.0) (0.325 ml) is introduced into each of a battery of screwtop culture tubes. Then, a compound (0.100 ml) to be assayed is dispensed into individual tubes. Dose-response curves are determined by triplicate measurements at each concentration. Control tubes receive Buffer A (0.100 ml) in lieu of compound. Next, glycogen elicited rabbit PMNs (2×10^7 cells/tube; 4×10^7 cells/ml (0.500 ml) are added to each tube. The tubes are vortexed and preincubated in a shaking 37° C. water bath for 15 minutes.
Thereafter, the tubes are removed from the water bath and Calcium Ionophore Solution (400 μg/ml A-23187; Sigma Chemical Co., St. Louis, MO) (0.025 ml), ^14 C-arachidonic acid (0.25 μCi in 0.025 ethanol; New England Nuclear Products, Boston, MA) (0.025 ml) and Ca^+2 solution (CaCl2.2H2 O); 105.8 mg/10 ml H2 O) (0.025 ml) are added in that order. The tubes are vortexed and returned to the water bath for 30 minutes. The reaction is then terminated by the addition of HCl (0.8N, 0.025 ml).
Extraction and concentration of ^14 C-labeled 5-HETE is performed as follows. First, a solution (5.01 ml) containing 2 parts ethyl acetate, 3 parts CH2 Cl2 and unlabeled arachidonic acid (0.01 ml) is added to each tube. The tubes are capped and briefly vortexed. The contents of each tube are poured into a polypropylene column fitted with a porous polyethylene disc and Whatman phase separation filter paper. The organic phase is collected by gravity filtration into a conical centrifuge tube, while the aqueous phase is retained in the column by the phase separation paper. Each culture tube is rinsed once with the EtOAc:CH2 Cl2 solution (no arachidonic acid) (0.1 ml) and the wash added to the column. The organic phase is concentrated (to 0.5 ml) using a Savant Speed Vac concentrator (Savant Instruments, Inc., Hicksville, NY).
After concentration of the organic phase, the tubes are vortexed and stored covered on ice. An aliquot (0.01 ml) is then removed for liquid scintillation counting in a Beckman LS7500 Liquid Scintillation Counter (Beckman Instruments Corp., Fullerton, CA). […] This volume is applied to a silica gel covered glass plate in a 10 mm streak. The remaining fluid in the tube is measured via syringe and noted.
The TLC plate is placed in a chromatography chamber containing the following solvent system: CHCl3 :MeOH:HOAc:H2 O(v/v; 90:9:1:0.65). The plate is then air dried and counter on a Berthold Linear TLC Analyzer (Berthold Instruments, Inc., Pittsburgh, PA) for 30 minutes per lane. The integrated area of the 5-HETE band for each compound is converted to percent of control and analyzed.

[5] = system: Human neutrophils (respiratory burst, H2O2 production); assay: Effect of Test Compound on H2O2 Production by Neutrophils (PMNs); type: cell-based; settings: for IC50: Homo sapiens, Neutrophil
Description: During this process molecular oxygen is converted to superoxide anion, which in turn yields hydrogen peroxide, hydroxyl radical and products of myeloperoxidase action. These activated oxygen species contribute to the cells microbiocidal activity. However they have also been reported to contribute to the inflammatory process and tissue destruction in rheumatic diseases [J. Fantone and P. Ward, Amer. […] This assay measures the ability of a test compound to inhibit the respiratory burst process by its effect on hydrogen peroxide production.
Either 10 μL stock solution of test compound or 10 μL medium is added to the appropriate tubes, followed by 1 ml cells in each tube. The tubes are incubated at 37° C. for 15 minutes. To the PMA stimulated group 10 μL/tube 10^-5 M PMA is added. To the opsonized zymosan stimulated group 20 μL/tube 10 mg/ml opsonized zymosan is added. The tubes are mixed gently to disperse cells and stimulus (if any) and 100 μL is pipetted into each of four microtiter plates. The plates are covered and incubated 1 hour at 37° C. in CO2.
After the incubation period 10 μL 1N NaOH is added to each test well to develop the color. A blanking well is made up of 110 μl distilled water.
Mean OD values are calculated for each set of quadruplicate wells. Any artifactual change in absorbance due to a direct drug effect on the detection system is subtracted out from the ΔOD of the stimulated cells+drug tubes. The % inhibition of H2 O2 release by PMA or opsonized zymosan is calculated relative to the "O drug" control for each stimulus as follows: […]

[6] = system: reverse passive arthus reaction (paw swelling) in rats; assay: Reverse Passive Arthus Reaction; type: in vivo, rat
Method: The reverse passive arthus reaction is initiated by the interaction of antigen and antibody resulting in the formation of a precipitating immune complex, followed by fixation of complement, accumulation of leukocytes, edema and hemorrhage. The immunopathology of rheumatoid arthritis involves many of the parameters found in this reaction.
Test groups (5 rats per group) are dosed orally with compounds one hour prior to the sub-plantar injection into the right hind paw of rabbit anti-ovalbumin antibody (50 μg/0.1 ml). Immediately afterwards, ovalbumin (Sigma, #5503) (5 mg/0.2 ml) is injected i.v. via the tail vein. The right hind paw volume is measured at hourly intervals, from one to four hours after the injection of the immune reactants.
The change in paw volume for each animal is calculated by subtracting the zero hour paw volume (before injection) from the paw volume at the time of measurement. The mean of these values is calculated for each group. Results are expressed as percent inhibition of paw swelling compared to untreated controls.

[7] = system: MMC-16 cells, LTC4 release (lipoxygenase pathway); assay: Mouse Mastocytoma Cell Leukotriene Release; type: cell-based
Method: The MMC-16 cell line represents a convenient in vitro model for studying the lipoxygenase pathway and offers an effective screening method by which inhibitory test compounds can be identified.
Cultured MMC-16 cells are suspended in Ca^++ free phosphate buffer at a concentration of 10^7 cells/ml. The cell suspension is distributed into plastic culture tubes, 1 ml/tube. Duplicate tubes are used for each drug concentration tested, with drug solution (0.2 ml) added to each tube. An ionophore control consists of Ca^++ free buffer (0.2 ml) added to two tubes, and a blank (0.4 ml Ca^++ free buffer) added to two tubes. CaCl2 solution (0.1 ml) is added to the drug and ionophore control tubes, which are vortexed and incubated at 37° C. for 40 minutes. The tubes are then centrifuged at 1,000×g for 10 minutes, and the supernatants collected and added to 4 volumes of absolute ethanol. LTC4 content is then assayed for by either radioimmunoassay or high performance liquid chromatography.

[8] = in vivo; settings: rat
Method: A 50% ulcerogenic response in the animals tested (UD50) at 200 mg/kg for 4 days is observable when the rats are examined 24 hours after the last dose.

CC(C)(C)c1cc(C=Cc2cccnc2)cc(C(C)(C)C)c1O [Compound 1, 3-[2-(3,5-di-t-butyl-4-hydroxyphenyl)ethenyl]-pyridine]
% Inhibition ([1]; 5 mg/kg): 56%
% Inhibition ([1]; 50 mg/kg): 82%
activity in developing adjuvant arthritis screen in the rat ([1]; in words): active
% Inhibition ([2]; 5.0 mg/kg, oral, daily days 14-27): 60%
% Inhibition ([2]; 10.0 mg/kg, oral, daily days 14-27): 74%
% Inhibition ([2]; 20.0 mg/kg, oral, daily days 14-27): 79%
% Inhibition ([2]; 40.0 mg/kg, oral, daily days 14-27): 82%
activity in established adjuvant arthritis screen in the rat ([2]; in words): active
ED50 ([2]; rat established adjuvant arthritis, oral, daily days 14-27): 4 mg/kg
% Inhibition ([3]; 100 mg/kg, oral, 1 hour prior to carrageenan, edema at 3 hours): 56%
activity in carrageenan paw edema screen ([3]; in words): active
IC50 [4]: 3 µM
inhibition at 50 µM ([4]; 5 × 10^-5 M): 66%
inhibition at 5 µM ([4]; 5 × 10^-6 M): 68%
inhibition at 0.5 µM ([4]; 5 × 10^-7 M): 18%
inhibition at 10 µM ([4]; 10^-5 M): 67%
inhibition at 1 µM ([4]; 10^-6 M): 29%
inhibition of 5-lipoxygenase ([4]; in words): inhibit
IC50 ([5]; read-out: Opsonized Zymosan Stimulated Oxidative Burst IC50): 14 µM
IC50 ([5]; read-out: PMA Stimulated Oxidative Burst IC50): 25 µM
release of pro-inflammatory oxygen metabolites from stimulated neutrophils ([5]; in words): inhibited
% Inhibition ([6]; 1 mg/kg oral, hour 1): 17%
% Inhibition ([6]; 1 mg/kg oral, hour 2): 19%
% Inhibition ([6]; 1 mg/kg oral, hour 3): 26%
% Inhibition ([6]; 1 mg/kg oral, hour 4): 10%
% Inhibition ([6]; 30 mg/kg oral, hour 1): 29%
% Inhibition ([6]; 30 mg/kg oral, hour 2): 50%
% Inhibition ([6]; 30 mg/kg oral, hour 3): 55%
% Inhibition ([6]; 30 mg/kg oral, hour 4): 44%
% Inhibition ([6]; 100 mg/kg oral, hour 1): 7%
% Inhibition ([6]; 100 mg/kg oral, hour 2): 48%
% Inhibition ([6]; 100 mg/kg oral, hour 3): 55%
% Inhibition ([6]; 100 mg/kg oral, hour 4): 22%
activity in reverse passive arthus screen ([6]; in words): active
inhibition at 30 µM ([7]; 3 × 10^-5 M): 100%
inhibition at 3 µM ([7]; 3 × 10^-6 M): 18%
inhibition at 10 µM ([7]; 10^-5 M): 67%
inhibition at 1 µM ([7]; 10^-6 M): 0%
IC50 ([7]; LTC4 release, MMC-16 cells): 7 µM
TD50 at 24 h [8]: 200 mg/kg

CC(C)(C)c1cc(C=Cc2ccncc2)cc(C(C)(C)C)c1O [4-[2-(3',5'-di-t-butyl-4'-hydroxyphenyl)ethenyl]pyridine, reference compound]
% Inhibition ([1]; 50 mg/kg): 0%
